Reference: US12331322B2, “Agent for accelerating growth of pluripotent stem cells” (Oriental Yeast Co., Ltd., priority 2017, dated 2025)

Assays:
iPS cells (201B7) [1] = test: WST assay, growth of iPS cells (201B7) in culture medium with β-NMN or NAM; format: cell-based, human; settings: for absorbance values at 450 nm (ref. 595 nm), WST assay, compared with basal medium: Example 2, FIG. 2, 0.2 or 0.4 mM added to E8 medium
Procedure: As iPS cells, 201B7 line which is human iPS cells was used. For iPS cells, an E8 medium (LTC) containing 19.4 mg/L of insulin, 10.7 mg/L of transferrin, 100 μg/L of bFGF, 2 μg/L of TGFβ, 14 μg/L of sodium selenite, 64 mg/L of ascorbic acid, and 543 mg/L of NaHCO3 in DMEM/F12 was used as the basal medium. First, iPS cells cultured in the basal medium were separated from a culture vessel by a cell-peeling solution and recovered. The recovered cells were counted and seeded in each well of a Matrigel-coated 96-well plate at 1000 to 2000 cells/well. At this time, a ROCK inhibitor was added to each well. The 96-well plate was cultured at 37° C. for 1 day to allow the cells to adhere, and then the medium containing the ROCK inhibitor was removed from each well, the medium was replaced with a medium obtained by adding, to the basal medium, β-NMN (Oriental Yeast Co., Ltd.) so that a final concentration became 0 to 2 mM, and culturing was performed for 3 to 4 days. Thereafter, a growth ability of cells surviving in each well was measured by water-soluble tetrazolium salts (WST) assay. Specifically, after adding WST-1 (manufactured by Nacalai Tesque) to each well and incubating at 37° C. for 1 to 4 hours, absorbance values at 450 nm (ref. 595 nm) were measured using a microplate reader (manufactured by BMG LABTECH). The term “absorbance value (450 to 595 nm)” is an absorbance value at 450 nm using an absorbance value at 595 nm as a reference value, and is specifically a value obtained by subtracting an absorbance value at 595 nm from an absorbance value at 450 nm. Specifically, iPS cells were cultured and the WST assay was performed in the same manner as in Example 1 except that the medium added after removing the medium containing the ROCK inhibitor was changed to a culture medium to which β-NMN was added so that a final concentration became 0, 0.2, or 0.4 mM, or a culture medium to which NAM was added so that a final concentration became 0, 0.2, or 0.4 mM. The iPS cells cultured in the basal medium used in Example 1 were separated from a culture vessel by a cell-peeling solution and recovered. The recovered cells were counted and seeded in each well of a Matrigel-coated 96-well plate at 1000 to 2000 cells/well. At this time, a ROCK inhibitor and β-NMN having a final concentration of 0 to 1 mM were added to each well. The cells in 96-well plate was cultured at 37° C. for 1 day to allow the cells to adhere, and then the medium containing the ROCK inhibitor was removed from each well, the medium was replaced with a culture medium obtained by adding, to the basal medium, β-NMN so that a final concentration became 0 to 1 mM, and culturing was performed for 3 to 4 days. Thereafter, WST assay was performed in the same manner as in Example 1. The results of measuring absorbance values at 450 nm (ref. 595 nm) of each cells cultured in a medium to which both ROCK inhibitor and β-NMN were added are shown in FIG. 4.

iPS cells (253G1) = test: WST assay, growth of iPS cells (253G1) in culture medium with β-NMN or NAM; format: cell-based; settings: for absorbance values at 450 nm (ref. 595 nm), WST assay, compared with basal medium: Example 3, FIG. 3, added to E8 medium
Procedure: First, iPS cells cultured in the basal medium were separated from a culture vessel by a cell-peeling solution and recovered. The recovered cells were counted and seeded in each well of a Matrigel-coated 96-well plate at 1000 to 2000 cells/well. At this time, a ROCK inhibitor was added to each well. The 96-well plate was cultured at 37° C. for 1 day to allow the cells to adhere, and then the medium containing the ROCK inhibitor was removed from each well, the medium was replaced with a medium obtained by adding, to the basal medium, β-NMN (Oriental Yeast Co., Ltd.) so that a final concentration became 0 to 2 mM, and culturing was performed for 3 to 4 days. Thereafter, a growth ability of cells surviving in each well was measured by water-soluble tetrazolium salts (WST) assay. Specifically, after adding WST-1 (manufactured by Nacalai Tesque) to each well and incubating at 37° C. for 1 to 4 hours, absorbance values at 450 nm (ref. 595 nm) were measured using a microplate reader (manufactured by BMG LABTECH). The term “absorbance value (450 to 595 nm)” is an absorbance value at 450 nm using an absorbance value at 595 nm as a reference value, and is specifically a value obtained by subtracting an absorbance value at 595 nm from an absorbance value at 450 nm. iPS cells were cultured in culture medium containing β-NMN or NAM, and the effects of β-NMN and NAM on growth were compared. As iPS cells, 253G1 line was used. Specifically, iPS cells were cultured and WST assay was performed in the same manner as in Example 1 except that 253G1 line was used instead of 201B7 line.

iPS cells (201B7) [2] = test: Alkaline phosphatase measurement test (undifferentiated marker) on iPS cells (201B7); format: cell-based, human; settings: Example 4, FIG. 5, β-NMN up to 1 mM added with ROCK inhibitor, vs β-NMN-free medium
Procedure: iPS cells were cultured in a culture medium containing β-NMN, and the effects of β-NMN on differentiation potential and growth were examined. As iPS cells, a 201B7 line was used. The differentiation potential was examined using the enzyme activity of alkaline phosphatase, which is an undifferentiated marker, as an indicator. First, the iPS cells cultured in the basal medium used in Example 1 were separated from a culture vessel by a cell-peeling solution and recovered. The recovered cells were counted and seeded in each well of a Matrigel-coated 96-well plate at 2000 cells/well. At this time, the ROCK inhibitor and β-NMN having a final concentration of 0 to 1 mM were added to each well. The cells in 96-well plate was cultured at 37° C. for 1 day to allow the cells to adhere, and then the medium containing the ROCK inhibitor was removed from each well, the medium was replaced with a medium obtained by adding, to the basal medium, β-NMN so that a final concentration became 0 to 1 mM, and culturing was performed for 3 to 4 days. During this period, the medium was replaced daily. […] After drying the wells, a bicarbonate buffer containing […], which is an alkaline phosphatase measurement reagent, was added and incubated at 37° C. for 30 minutes, and then absorbance at 405 nm was measured using a microplate reader.

[3] = system: Human mesenchymal stem cells (human MSCs); test: WST assay, proliferative activity of human mesenchymal stem cells; format: cell-based; settings: 72 hours
Procedure: Human MSCs purchased from Lonza were used. As a basal medium for human MSCs, a dedicated maintenance medium purchased from Lonza was used. Human MSCs were seeded in 96-well plates (Nunc) at 2×10^3 cells/well (n=3 to 4). They were cultured at 37° C. in a CO2 incubator to allow them to adhere, and then β-NMN (manufactured by Oriental Yeast Co., Ltd.) was added so that a final concentration became 1.0, 0.1, 0.01, or 0.001 mM, and culture was further performed at 37° C. in a CO2 incubator for 72 hours. Thereafter, proliferative activity of cells in each well was measured with WST assay. Specifically, after adding a viable cell count reagent SF (Nacalai Tesque) to each well and incubating at 37° C. for 1 to 4 hours, absorbance at 450 nm was measured with the reference wavelength at 620 nm using a microplate reader (absorbance values at 450 nm (ref. 620 nm) (BMG LABTECH). The term “absorbance values at 450 nm (ref. 620 nm)” is an absorbance value at 450 nm using an absorbance value at 620 nm as a reference value, and is specifically a value obtained by subtracting an absorbance value at 620 nm from an absorbance value at 450 nm. [0045]

iPS cells (201B7) [4] = test: Flow cytometry of undifferentiated markers (SSEA4, low sulfated keratan sulfate) in iPS cells (201B7); format: cell-based, human; settings: 5 or more passages, vs 0 mM
Procedure: The differentiation potential of iPS cells maintained and grown in the presence of β-NMN was confirmed. As iPS cells, a 201B7 line was used. Specifically, iPS cells were seeded in a 35 mm dish coated with Matrigel (Corning) at 1.5×10^4 cells/dish. As culture medium in which β-NMN was added to a basal medium (E8 medium) of iPS cells so that a final concentration became 0, 0.25, or 1 mM was used. At the time of seeding, Rho-dependent apoptosis was suppressed using a culture medium to which a Rock inhibitor was added so that a final concentration became 10 μM. The medium was replaced daily and the cells were passaged on day 5 and 6. iPS cells cultured for 5 or more passages in the medium to which β-NMN was added were stained with each of antibodies against SSEA4 and against low sulfated keratan sulfate which are undifferentiated markers, and cells expressing the undifferentiated markers were analyzed with a flow cytometer.

Compound | absorbance values at 450 nm (ref. 595 nm), WST assay, compared with basal medium (iPS cells (201B7) [1]) | absorbance values at 450 nm (ref. 595 nm), WST assay, compared with basal medium (iPS cells (253G1)) | absorbance values at 450 nm (ref. 595 nm), WST assay (iPS cells (201B7) [1]; Example 1, FIG. 1, medium containing 0.1 mM or more of β-NMN vs β-NMN-free medium, 3 to 4 days) | absorbance values at 450 nm (ref. 595 nm), WST assay (iPS cells (201B7) [1]; Example 1, FIG. 1, β-NMN 0.8 mM or more) | absorbance values at 450 nm (ref. 595 nm), WST assay (iPS cells (201B7) [1]; Example 1, FIG. 1, β-NMN 0.1 to 0.2 mM) | absorbance values at 450 nm (ref. 595 nm), WST assay (iPS cells (201B7) [1]; Example 1, FIG. 1, β-NMN 0.2 to 0.6 mM) | absorbance values at 450 nm (ref. 595 nm), WST assay, β-NMN-added medium compared with NAM-added medium (iPS cells (201B7) [1]; Example 2, FIG. 2, final concentration 0.2 mM and 0.4 mM) | absorbance values at 450 nm (ref. 595 nm), WST assay (effect on growth) (iPS cells (201B7) [1]; Example 4, FIG. 4, β-NMN 0 to 1 mM added together with ROCK inhibitor at seeding and afterwards) | absorbance values at 450 nm (ref. 595 nm), WST assay, β-NMN-added medium compared with NAM-added medium (iPS cells (253G1); Example 3, FIG. 3, final concentration 0.2 mM and 0.4 mM) | absorbance values at 405 nm, alkaline phosphatase measurement test (iPS cells (201B7) [2]) | proliferative activity of human MSCs (absorbance, WST assay), overall ([3]; addition of β-NMN 0.001 to 1.0 mM) | Absorbance value at450 nm (ref. 620 nm) ([3]; β-NMN concentration 0.001 mM) | Absorbance value at450 nm (ref. 620 nm) ([3]; β-NMN concentration 0.01 mM) | Absorbance value at450 nm (ref. 620 nm) ([3]; β-NMN concentration 0.1 mM) | Absorbance value at450 nm (ref. 620 nm) ([3]; β-NMN concentration 1 mM) | Expression of SSEA4 (flow cytometry, anti-SSEA4 antibody) (iPS cells (201B7) [4]; Example 6, FIGS. 6 to 8, 0.25 mM or 1 mM of β-NMN) | Expression of low sulfated keratan sulfate (flow cytometry, R10G antibody) (iPS cells (201B7) [4]; Example 6, FIGS. 9 to 11, 0.25 mM or 1 mM of β-NMN)
NC(=O)c1cccnc1 [NAM, nicotinamide, reference compound] | higher absorbance values than cells cultured in the basal medium | slightly higher absorbance value than that of the cells cultured in the basal medium |  |  |  |  |  |  |  |  |  |  |  |  |  |  | 
NC(=O)c1ccc[n+]([C@@H]2O[C@H](COP(=O)([O-])O)[C@@H](O)[C@H]2O)c1 [β-NMN, β-nicotinamide mononucleotide] | higher absorbance values than cells cultured in the basal medium | higher absorbance value than that of the cell cultured in the basal medium | greater than that of the cells cultured in the β-NMN-free medium | tended to slightly decrease | increased in a concentration-dependent manner | the absorbance value was the same | significantly higher than that of the cells cultured in the NAM-added medium | growth-accelerating effect on iPS cells was obtained in a β-NMN concentration-dependent manner | significantly higher than that of the cells cultured in the NAM-added medium | higher than that of the cells cultured in the β-NMN-free medium | increased the absorbance value and accelerated proliferative activity | 0.573 ± 0.0312 | 0.604 ± 0.0587 | 0.634 ± 0.0411 | 0.615 ± 0.0340 | maintained | maintained
